The structures appear in SMILES notation.

In the experiment the target is Human cathepsin B (Homo sapiens, UniProt P07858). Description: Cathepsin B Assay. The conditions noted are these: apparent inhibition constant; Boc-Leu-Arg-Arg-AMC substrate; pH 6; 30 minutes pre-incubation; read-out: cat B Ki. The class given is biochemical. As to the method:
Solutions of test compounds in varying concentrations were prepared in 10 μL of dimethyl sulfoxide (DMSO) and then diluted into assay buffer (40 μL, comprising: N,N-bis(2-hydroxyethyl)-2-aminoethanesulfonic acid (BES), 50 mM (pH 6); polyoxyethylenesorbitan monolaurate, 0.05%; and dithiothreitol (DTT), 2.5 mM). Human cathepsin B (0.025 pMoles in 25 μL of assay buffer) was added to the dilutions. The assay solutions were mixed for 5-10 seconds on a shaker plate, covered and incubated for 30 minutes at ambient temperature. Boc-Leu-Arg-Arg-AMC (20 μM in 1% DMSO) was added to the assay solutions and hydrolysis was followed spectrophotometrically at (λ 460 nm) for 5 minutes. Apparent inhibition constants (Ki) were calculated from the enzyme progress curves using standard mathematical models.
Take `CC[C@H](NC(=O)[C@H](Cc1cc(I)c(O)c(I)c1)N[C@@H](c1ccc(F)cc1)C(F)(F)F)C(=O)C(=O)NC1CC1` [N-cyclopropyl-3S-{3-[3,5-diiodo-4-hydroxyphenyl)-2S-(2,2,2-trifluoro)-1S-(4-fluorophenyl)ethylamino]propionylamino}-2-oxopentanamide]: the Ki was 1.16 nM.

For the molecule `N#CC1(NC(=O)[C@H](Cc2cc(I)c(O)c(I)c2)N[C@@H](c2ccc(Br)cc2)C(F)(F)F)CC1` [N-(1-Cyanocyclopropyl)-2S-[2,2,2-trifluoro-1S-(4-bromophenyl)-ethylamino]-3-(3,5-diiodo-4-hydroxyphenyl)-propanamide], the Ki stood at 13 nM. To `CC[C@H](NC(=O)[C@H](Cc1cc(Cl)c(O)c(Cl)c1)N[C@@H](c1ccc(F)cc1)C(F)(F)F)C(=O)C(=O)NC1CC1` [N-Cyclopropyl-3S-{3-[3,5-dichloro-4-hydroxyphenyl)-2S-(2,2,2-trifluoro)-1S-(4-fluorophenyl)ethylamino]propionylamino}-2-oxopentanamide] belongs no more than 1 nM; to `N#CC1(NC(=O)[C@H](Cc2cc(Cl)c(O)c(Cl)c2)N[C@@H](c2ccc(Br)cc2)C(F)(F)F)CC1` [N-(1-Cyanocyclopropyl)-2S-[2,2,2-trifluoro-1S-(4-bromophenyl)-ethylamino]-3-(3,5-dichloro-4-hydroxyphenyl)-propanamide], 45 nM; to `N#CCNC(=O)[C@H](Cc1cc(I)c(O)c(I)c1)N[C@@H](c1ccc(Br)cc1)C(F)(F)F` [N-Cyanomethyl-2S-[2,2,2-trifluoro-1S-(4-bromophenyl)-ethylamino]-3-(3,5-diiodo-4-hydroxyphenyl)-propanamide], 3.5 nM. Next, `CC[C@H](NC(=O)[C@H](Cc1cc(Cl)c(O)c(Cl)c1)N[C@@H](c1ccc(Br)cc1)C(F)(F)F)C(=O)C(=O)NC1CC1` [N-cyclopropyl-3S-{3-[3,5-dichloro-4-hydroxyphenyl)-2S-(2,2,2-trifluoro)-1S-(4-bromophenyl)ethylamino]propionylamino}-2-oxopentanamide]: 1.53 nM; `N#CC1(NC(=O)[C@H](Cc2cc(Cl)c(O)c(Cl)c2)N[C@@H](c2ccc(F)cc2)C(F)(F)F)CC1` [N-(1-Cyanocyclopropyl)-2S-[2,2,2-trifluoro-1S-(4-fluorophenyl)-ethylamino]-3-(3,5-dichloro-4-hydroxyphenyl)-propanamide]: 130 nM; `CC[C@H](NC(=O)[C@H](Cc1cc(I)c(O)c(I)c1)N[C@@H](c1ccc(Br)cc1)C(F)(F)F)C(=O)C(=O)NC1CC1` [N-cyclopropyl-3S-{3-[3,5-diiodo-4-hydroxyphenyl)-2S-(2,2,2-trifluoro)-1S-(4-bromophenyl)ethylamino]propionylamino}-2-oxopentanamide]: 1.28 nM.

Values taken from patent publication US20150191459A1, “CATHEPSIN INHIBITORS” (ViroBay, Inc., priority 2013, published 2015).
